Source: patent US9617262B2, “Antibacterial cyclopental[C]pyrrole substituted 3,4-dihydro-1H-[1,8]naphthyridinones” (Janssen Sciences Ireland UC, priority 2011, dated 2017)
Converted amounts (≈) assume the structure as drawn.

What was measured:
[1] = tested on: Haemophilus influenzae ATCC 49247; reference strain; assay: Antimicrobial spectrum, broth microdilution MIC; assay type: cell-based; details: H. influenza ATCC 49247
Protocol: (§1) Minimum Inhibitory Concentrations (MICs) were determined in accordance with the Clinical and Laboratory Standards Institute (CLSI) methodology against aerobic bacteria (CLSI M07-A8) (see Clinical and Laboratory Standards Institute. 2009. Methods for dilution antimicrobial susceptibility tests for bacteria that grow aerobically. CLSI document M07-A8, Vol. 29, No. 2.) by the broth microdilution method with cation-adjusted Mueller-Hinton broth (CA-MHB) medium for the majority of organisms, except for Haemophilus influenza, where Haemophilis test medium (HTM) broth was used. Descriptions of the individual organisms can be found in the table. Where possible, ATCC standard strains were tested.
(§2) The inoculum density for the susceptibility testing was standardized to give a final inoculum of approximately 5×10^5 CFU/mL.
(§3) Stock solutions of the compounds were prepared in DMSO at concentrations of 1 mg/mL. Linezolid was prepared in DMSO at a concentration of 2 mg/mL. Stock solutions of all compounds were diluted into CA-MHB to give a range of two-fold dilutions, depending upon the sensitivity of the organism being tested.

[2] = tested on: Escherichia coli Tol C mutant; assay: Antimicrobial spectrum, broth microdilution MIC; assay type: cell-based; details: E. coli tolC mutant
Protocol: as §1, §2, §3

[3] = tested on: Staphylococcus aureus NRS119; LZD-R; assay: Antimicrobial spectrum, broth microdilution MIC; assay type: cell-based; details: S. aureus NRS119
Protocol: as §1, §2, §3

[4] = tested on: Staphylococcus aureus NRS120; LZD-R; assay: Antimicrobial spectrum, broth microdilution MIC; assay type: cell-based; details: S. aureus NRS120
Protocol: as §1, §2, §3

[5] = tested on: Moraxella catarrhalis ATCC 8176; b-lactamase negative; assay: Antimicrobial spectrum, broth microdilution MIC; assay type: cell-based; details: M. catarrhalis ATCC 8176
Protocol: as §1, §2, §3

[6] = tested on: Staphylococcus aureus ATCC 29213; reference strain MSSA; assay: Antimicrobial spectrum, broth microdilution MIC; assay type: cell-based; details: S. aureus ATCC 29213
Protocol: as §1, §2, §3

[7] = tested on: Staphylococcus aureus NRS121; LZD-R; assay: Antimicrobial spectrum, broth microdilution MIC; assay type: cell-based; details: S. aureus NRS121
Protocol: as §1, §2, §3

[8] = tested on: Escherichia coli ATCC 25922; reference strain; assay: Antimicrobial spectrum, broth microdilution MIC; assay type: cell-based; details: E. coli ATCC 25922
Protocol: as §1, §2, §3

[9] = tested on: Staphylococcus aureus ATCC 43300; reference strain MRSA; assay: Antimicrobial spectrum, broth microdilution MIC; assay type: cell-based; details: S. aureus ATCC 43300
Protocol: as §1, §2, §3

[10] = tested on: Methicillin-sensitive Staphylococcus aureus strain ATCC 29213; assay: In vivo efficacy, peritonitis model of S. aureus infection; details: IV, 20% CD + 2H2T, IP infection, inoculum 8.7 log10, female Swiss albino mice, 3 days post-infection
Text: The concept of studying the in vivo effect of an antibacterial compound by treating intraperitoneally infected mice was introduced in 1911 for optochin against pneumococci (Morgenroth and Levy, 1911). The popularity of the model comes from the ease of its use with short-duration experiments, reproducible infections and simple end-points.
Methicillin-sensitive Staphylococcus aureus strain ATCC 29213 was used to infect female Swiss albino mice. A Brain Heart Infusion (BHI) broth bacterial culture was inoculated the day before infection, incubated at 37° C. overnight and diluted in fresh BHI broth to the desired concentration. I.p. injection of ˜5×10^8-5×10^9 colony forming units (CFU) was performed in either of the lateral lower quadrants of the abdomen. After inoculation, mice were kept in their cages under daily observation for development of signs of infection or death. For the treatment of mice, both the p.o. and i.v. routes were used and each mouse was treated individually by gavage or by i.v. injection. Both solutions (p.o. and i.v.) and suspensions (p.o.) were tested in this model. The parameter used for monitoring the course of infection and the effect of treatment was death or survival of the animals over 3 days post-infection. […]

[11] = tested on: Staphylococcus aureus ATCC 29213; assay: Antibacterial susceptibility testing: IC90 determination (STA); assay type: cell-based; details: STA ATCC 29213, 90% inhibitory concentration for bacterial growth
Protocol: The following bacteria were used: Staphylococcus aureus ATCC 29213, methicillin-resistant Staphylococcus aureus (MRSA) ATCC 700788 and Escherichia coli ATCC 35218. The bacteria used in this study were grown overnight in flasks containing 100 ml Mueller-Hinton broth (Difco cat. nr. 0757-17) in sterile de-ionized water, with shaking, at 37° C. Stocks were store at −70° C. until use.
Bacteria were incubated on a tryptic soy agar plate containing 5% sheep blood (Becton Dickinson cat. nr. 254053) for 18-24 hours at 35° C. in aerobic conditions (first passage). For the second passage, fresh Mueller-Hinton broth is inoculated with 5-10 colonies and grown overnight at 35° C. until turbidity (reaching log-phase) in aerobic conditions is reached. The bacterial suspension is then adjusted to 0.5 McFarland density and further diluted 1:100 in Mueller Hinton broth medium. This is used as inoculum.
MIC assays were performed by the broth microdilution method in a 96-well format (flat-bottom microtitre plates) with a final volume of 0.1 ml Mueller Hinton broth containing two-fold serial dilutions of compounds and inoculated with 5×10^5 CFU/ml of bacteria (standard inoculum size according to CLSI guidelines). Inhibitors are typically varied over the range of 63 to 0.49 μM. The final DMSO concentration in the assay was 1.25% (maximum tolerable DMSO concentration=6%). In the assays where the effect of human serum on the activity of the compounds against S. aureus was tested, human serum was added at a final concentration of 10%. The plates were incubated at 35° C. for 16-20 hours. At the end of incubation the bacterial growth was quantified fluorometrically. For this, resazurin was added to all wells and the plates were re-incubated. The incubation time is dependent on the type of bacteria. A change in color from blue to pink indicated the growth of bacteria. The fluorescence was read in computer-controlled fluorometer (Fluoroskan Ascent FL, Labsystems) at an excitation wavelength 540 nm and an emission wavelength of 590 nm. The % growth inhibition achieved by the compounds was calculated according to standard methods. The IC90 (expressed in μg/ml) was defined as the 90% inhibitory concentration for bacterial growth. A panel of reference compounds were simultaneously tested for QC approval.

O=C1CCc2cc(/C=C/C(=O)N3C[C@@H]4CC(c5ccccc5)=C[C@@H]4C3)cnc2N1 (single isomer, unassigned) [compound 14] showed an MIC90 [1] of 0.25 µg/mL (≈ 0.649 µM), an MIC90 [2] of 0.25 µg/mL (≈ 0.649 µM) and an MIC90 [3] of 0.03 µg/mL (≈ 0.0778 µM). It also gave an MIC90 [4] of 0.03 µg/mL (≈ 0.0778 µM), an MIC90 [5] of 0.015 µg/mL (≈ 0.0389 µM) and an MIC90 [6] of 0.03 µg/mL (≈ 0.0778 µM). The MIC90 [7] was 0.03 µg/mL (≈ 0.0778 µM), the MIC90 [8] was 4 µg/mL (≈ 10.4 µM) and the MIC90 [9] was 0.03 µg/mL (≈ 0.0778 µM). The “% Survival” value ([10]; QD 2.5 mpk) was 75%, the “% Survival” value ([10]; QD 5 mpk) was 100% and the “STA (361.159) IC90” value [11] was 0.19 µg/mL.
